Source: patent publication US20240299504A1, “COMPOSITIONS AND METHODS FOR TREATING ALZHEIMERS DISEASE” (priority 2023, published 2024)

Key:
[1] = tested on: p16Ink4a and p53; assay: Senescence markers in hippocampus (RT-PCR, Western blot); type: in vivo, mouse
Experimental: (§1) Parathyroid hormone (human) was purchased from TOCRIS Bioscience (Cat #3011/1, Abingdon, United Kingdom). WT or 5×FAD mice (both male and female) were treated with PTH1-34 intermittently [once daily injection of hPTH1-34 (50 μg/Kg) or vehicle (0.9% sodium chloride) (as a control) by subcutaneous injection, starting at 2-MO, 5 days per week] as described previously. Mice were then subjected to behavioral tests and sacrificed for examinations of their bone and brain phenotypes at the indicated ages.
Total proteins from cortex, hippocampus, or cultured astrocytes were extracted using RIPA lysis buffer [50 mM Tris-HCl (pH7.5), 150 mM NaCl, 1 mM EDTA, 1% v/v NP-40, 0.1% SDS, 1% sodium deoxycholate supplemented with Protease Inhibitor Cocktail (Roche) and 1 mM PMSF] and analyzed by Western Blot. Lysates were cleared by centrifugation at 12,000 g for 15 min at 4° C. to remove debris and to obtain homogenates. Homogenates samples were resolved by SDS-PAGE (8˜15%) gels and then electroblotted onto nitrocellulose membranes (Cat #1620112, Bio-Rad Laboratories). […] After washing with TBST 3 times, antibody reactivity was detected by the Enhanced Chemiluminescence (ECL) detection system (Amersham Biosciences). Band density of proteins was normalized in relation to loading control and analyzed using NIH ImageJ software. […]

[2] = tested on: serum inflammatory cytokines; assay: Mouse serum cytokine array; type: in vivo
Experimental: as §1
Serum samples from 5×FAD, Tg2576, and their WT control female mice (6˜MO) were collected and used for serum cytokine detection. Cytokines were measured with Mouse Cytokine Array Panel A (R&D Systems, cat #ARY006, Minneapolis, MN, USA). Briefly, the mixture of serum and the biotinylated detection antibodies cocktail is incubated with a Mouse Cytokine Array membrane. Any cytokine/detection antibody complex present was bound on the membrane by its cognate immobilized capture antibody. After washing off the unbound protein, streptavidin-horseradish peroxidase and chemiluminescent detection reagents were added to generate light signals. The light produced at each spot is proportional to the amount of cytokine binding.

[3] = tested on: IBA1+ microglia; assay: Co-immunostaining ThioS/IBA1/LPL, microglial cells; type: in vivo, mouse; details: 6-MO 5×FAD female mice vs Veh
Experimental: as §1
(§2) DAPI was used for nucleus staining.

[4] = tested on: ATG9A+ dystrophic neurites; assay: Co-immunostaining ThioS/ATG9A, plaque-associated dystrophic neurites; type: in vivo, mouse; details: cortex and hippocampus, ~6 MO 5×FAD female mice vs Veh
Experimental: as §1, §2

[5] = tested on: 5×FAD astrocytes; assay: Senescence markers in cultured astrocytes (RT-PCR, SA-β-gal staining); type: cell-based, mouse; details: cultured 5×FAD astrocytes, 100 ng/ml, 24 h
Experimental: Total RNA was extracted from cortex, hippocampus, or cultured astrocytes using a TRizol reagent (Invitrogen, cat #15596-026, Carlsbad, CA, USA) as previously described. Purified RNA (1-5 μg) was used for cDNA synthesis with the Revert Aid First Strand cDNA Synthesis Kit (Thermo Scientific, cat #K1621, Waltham, MA, USA). The cDNA products were subjected to subsequent quantitative PCR (qPCR) using the QuantiFast SYBR Green PCR Kit (QIA-GEN, cat #204057, Hilden, Germany) with a qPCR System (StepOne Plus). Each sample was repeated at least 3 times, and the mRNA level was normalized to GAPDH using the 2^−ΔΔCt method.
Astrocyte culture was performed according to the standard protocol with some modifications as described in previous literature. In brief, the cerebral cortex and hippocampus of postnatal day 3 (P3) female pups were dissected under a stereomicroscope and placed in ice-cold calcium- and magnesium-free HBSS (Hanks Balanced Salt Solution). The tissues were digested with 2.5% trypsin-EDTA, 3 ml for each mouse, at 37° C. for 20 min with shaking slightly every 5 min. […]
SA-β-gal staining of cultured astrocytes was performed as previously reported. […] The SA-β-gal intensity was quantified by the NIH ImageJ software.

## CC[C@H](C)[C@H](NC(=O)[C@H](CCC(=O)O)NC(=O)[C@H](CO)NC(=O)[C@@H](NC(=O)[C@@H](N)CO)C(C)C)C(=O)N[C@@H](CCC(N)=O)C(=O)N[C@@H](CC(C)C)C(=O)N[C@@H](CCSC)C(=O)N[C@@H](Cc1cnc[nH]1)C(=O)N[C@@H](CC(N)=O)C(=O)N[C@@H](CC(C)C)C(=O)NCC(=O)N[C@@H](CCCCN)C(=O)N[C@@H](Cc1cnc[nH]1)C(=O)N[C@@H](CC(C)C)C(=O)N[C@@H](CC(N)=O)C(=O)N[C@@H](CO)C(=O)N[C@@H](CCSC)C(=O)N[C@@H](CCC(=O)O)C(=O)N[C@@H](CCCN=C(N)N)C(=O)N[C@H](C(=O)N[C@@H](CCC(=O)O)C(=O)N[C@@H](Cc1c[nH]c2ccccc12)C(=O)N[C@@H](CC(C)C)C(=O)N[C@@H](CCCN=C(N)N)C(=O)N[C@@H](CCCCN)C(=O)N[C@@H](CCCCN)C(=O)N[C@@H](CC(C)C)C(=O)N[C@@H](CCC(N)=O)C(=O)N[C@@H](CC(=O)O)C(=O)N[C@H](C(=O)N[C@@H](Cc1cnc[nH]1)C(=O)N[C@@H](CC(N)=O)C(=O)N[C@@H](Cc1ccccc1)C(=O)O)C(C)C)C(C)C [PTH1-34]
[1]; hippocampus homogenates, 6-MO female 5×FAD mice
  p53 protein (Western blot): reduced
[1]; hippocampus, 6-MO 5×FAD female mice
  p16Ink4a and p53 transcripts (RT-PCR): great reduction
[2]; 6-MO 5×FAD female mice
  elevated serum factors (IL-1rα, IL-2, IL-3, IL-4, IL-10, CXCL9, CCL3): all reduced
  serum inflammation-associated factors IL1β, TNFα, TREM-1, CCL11, CCL5: reduced
[2]; 6-MO 5×FAD female mice (CCL4 decreased in 5×FAD)
  serum factor CCL4: restored
[3]
  Aβ associated LPL+IBA1+ microglial cells (DAM): little to no difference
  IBA1+ cell density and fluorescence intensity in regions without Aβ plaques: comparable
  ThioS+ Aβ plaque associated IBA1 fluorescence: unchanged
[3]; cortex and hippocampus
  overall IBA1 fluorescence intensity: lower in PTH1-34 treated 5×FAD cortex and hippocampus than that of Veh controls
[4]
  ATG9A+ dystrophic neurites: smaller and less dense ATG9A+ dystrophic neurites
[5]
  SA-β-gal+ astrocytes: attenuated
  p53 expression (RT-PCR): diminished
